Experimental findings from PMC4774911, “Biochemical Screening of Five Protein Kinases from Plasmodium falciparum against 14,000 Cell-Active Compounds” (PLoS ONE, 2016) are described below.

pIC50: −log10 of the molar value. Several values for one entry are separate records, joined by “and”; a condition that tells them apart may be missing. Identical values can stand only once.

What all share (test): biochemical
The target of experiment [1] is TNIK (Homo sapiens, UniProt Q9UKE5).
Experiment [2] deals with T1, ITK (Homo sapiens, UniProt Q08881).
T1 sequence (Q08881 1-620): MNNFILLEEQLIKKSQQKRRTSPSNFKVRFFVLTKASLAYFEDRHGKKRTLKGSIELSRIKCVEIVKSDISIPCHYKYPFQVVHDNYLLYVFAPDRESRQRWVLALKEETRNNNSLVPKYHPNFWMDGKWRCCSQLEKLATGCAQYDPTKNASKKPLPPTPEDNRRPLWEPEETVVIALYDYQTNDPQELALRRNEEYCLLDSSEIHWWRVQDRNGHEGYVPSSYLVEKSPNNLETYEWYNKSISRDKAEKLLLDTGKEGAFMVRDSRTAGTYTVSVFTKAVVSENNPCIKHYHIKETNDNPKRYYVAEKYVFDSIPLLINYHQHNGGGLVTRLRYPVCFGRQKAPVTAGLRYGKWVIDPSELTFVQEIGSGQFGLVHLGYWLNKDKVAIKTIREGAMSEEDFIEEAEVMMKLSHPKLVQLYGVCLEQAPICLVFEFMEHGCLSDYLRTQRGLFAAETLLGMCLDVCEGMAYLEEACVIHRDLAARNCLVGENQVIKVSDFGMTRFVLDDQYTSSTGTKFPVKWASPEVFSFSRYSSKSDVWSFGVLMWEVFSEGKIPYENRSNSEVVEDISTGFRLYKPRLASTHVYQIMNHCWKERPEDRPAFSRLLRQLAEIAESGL

The target of experiment [3] is T2, TEC (Homo sapiens, UniProt P42680).
T2 sequence (P42680 1-631): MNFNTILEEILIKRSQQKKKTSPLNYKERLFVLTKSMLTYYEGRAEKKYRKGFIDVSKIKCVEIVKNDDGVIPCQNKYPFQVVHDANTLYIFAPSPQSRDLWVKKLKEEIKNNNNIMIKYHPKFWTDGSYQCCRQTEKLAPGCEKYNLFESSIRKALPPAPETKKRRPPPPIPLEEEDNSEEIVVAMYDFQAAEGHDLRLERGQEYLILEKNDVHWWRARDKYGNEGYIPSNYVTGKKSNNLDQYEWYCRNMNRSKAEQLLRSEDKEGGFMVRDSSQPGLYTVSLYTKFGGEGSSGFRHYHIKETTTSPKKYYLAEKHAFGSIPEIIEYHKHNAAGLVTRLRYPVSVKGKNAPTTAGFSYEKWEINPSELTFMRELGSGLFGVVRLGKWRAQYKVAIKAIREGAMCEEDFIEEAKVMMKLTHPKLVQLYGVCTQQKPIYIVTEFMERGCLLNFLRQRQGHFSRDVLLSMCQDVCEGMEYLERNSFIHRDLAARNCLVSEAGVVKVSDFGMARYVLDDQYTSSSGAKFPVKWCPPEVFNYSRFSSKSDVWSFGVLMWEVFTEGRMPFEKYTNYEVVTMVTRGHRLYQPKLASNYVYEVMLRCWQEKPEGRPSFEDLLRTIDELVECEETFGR

Experiment [4] concerns the target CSNK1A1 (Homo sapiens, UniProt P48729).
Experiment [5] addresses JAK1 (Homo sapiens, UniProt P23458).
Experiment [6] has as its target PTK2 (Homo sapiens, UniProt Q05397).
Experiment [7] deals with T3, PRKD2 (Homo sapiens, UniProt Q9BZL6).
T3 sequence (Q9BZL6 1-878): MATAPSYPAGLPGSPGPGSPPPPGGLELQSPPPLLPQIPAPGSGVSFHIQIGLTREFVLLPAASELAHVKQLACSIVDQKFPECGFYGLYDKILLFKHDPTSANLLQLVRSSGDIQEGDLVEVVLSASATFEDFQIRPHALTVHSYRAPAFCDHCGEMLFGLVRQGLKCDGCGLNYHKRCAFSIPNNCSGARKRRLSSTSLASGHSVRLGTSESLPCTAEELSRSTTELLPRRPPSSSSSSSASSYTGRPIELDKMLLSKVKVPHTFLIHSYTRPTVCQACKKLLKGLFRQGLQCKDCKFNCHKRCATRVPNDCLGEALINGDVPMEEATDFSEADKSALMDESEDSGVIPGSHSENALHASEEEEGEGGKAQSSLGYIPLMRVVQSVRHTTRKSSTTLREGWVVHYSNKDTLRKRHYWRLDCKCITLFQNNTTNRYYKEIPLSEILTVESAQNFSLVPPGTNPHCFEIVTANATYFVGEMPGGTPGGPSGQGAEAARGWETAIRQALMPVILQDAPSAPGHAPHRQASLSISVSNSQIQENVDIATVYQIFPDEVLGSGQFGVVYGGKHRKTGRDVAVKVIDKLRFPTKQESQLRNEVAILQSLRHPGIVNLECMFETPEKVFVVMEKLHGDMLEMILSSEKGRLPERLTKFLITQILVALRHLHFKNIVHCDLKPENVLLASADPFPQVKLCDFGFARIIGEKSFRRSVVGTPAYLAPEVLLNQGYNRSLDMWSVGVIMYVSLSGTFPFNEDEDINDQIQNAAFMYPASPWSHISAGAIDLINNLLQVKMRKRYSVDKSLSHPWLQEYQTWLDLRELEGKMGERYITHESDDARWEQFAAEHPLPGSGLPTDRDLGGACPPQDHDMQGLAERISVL

Experiment [8] has as its target PRKCQ (Homo sapiens, UniProt Q04759).
Experiment [9] deals with KIAA0999 (Homo sapiens, UniProt Q9Y2K2).
Sequence of KIAA0999 (Q9Y2K2 whole entry): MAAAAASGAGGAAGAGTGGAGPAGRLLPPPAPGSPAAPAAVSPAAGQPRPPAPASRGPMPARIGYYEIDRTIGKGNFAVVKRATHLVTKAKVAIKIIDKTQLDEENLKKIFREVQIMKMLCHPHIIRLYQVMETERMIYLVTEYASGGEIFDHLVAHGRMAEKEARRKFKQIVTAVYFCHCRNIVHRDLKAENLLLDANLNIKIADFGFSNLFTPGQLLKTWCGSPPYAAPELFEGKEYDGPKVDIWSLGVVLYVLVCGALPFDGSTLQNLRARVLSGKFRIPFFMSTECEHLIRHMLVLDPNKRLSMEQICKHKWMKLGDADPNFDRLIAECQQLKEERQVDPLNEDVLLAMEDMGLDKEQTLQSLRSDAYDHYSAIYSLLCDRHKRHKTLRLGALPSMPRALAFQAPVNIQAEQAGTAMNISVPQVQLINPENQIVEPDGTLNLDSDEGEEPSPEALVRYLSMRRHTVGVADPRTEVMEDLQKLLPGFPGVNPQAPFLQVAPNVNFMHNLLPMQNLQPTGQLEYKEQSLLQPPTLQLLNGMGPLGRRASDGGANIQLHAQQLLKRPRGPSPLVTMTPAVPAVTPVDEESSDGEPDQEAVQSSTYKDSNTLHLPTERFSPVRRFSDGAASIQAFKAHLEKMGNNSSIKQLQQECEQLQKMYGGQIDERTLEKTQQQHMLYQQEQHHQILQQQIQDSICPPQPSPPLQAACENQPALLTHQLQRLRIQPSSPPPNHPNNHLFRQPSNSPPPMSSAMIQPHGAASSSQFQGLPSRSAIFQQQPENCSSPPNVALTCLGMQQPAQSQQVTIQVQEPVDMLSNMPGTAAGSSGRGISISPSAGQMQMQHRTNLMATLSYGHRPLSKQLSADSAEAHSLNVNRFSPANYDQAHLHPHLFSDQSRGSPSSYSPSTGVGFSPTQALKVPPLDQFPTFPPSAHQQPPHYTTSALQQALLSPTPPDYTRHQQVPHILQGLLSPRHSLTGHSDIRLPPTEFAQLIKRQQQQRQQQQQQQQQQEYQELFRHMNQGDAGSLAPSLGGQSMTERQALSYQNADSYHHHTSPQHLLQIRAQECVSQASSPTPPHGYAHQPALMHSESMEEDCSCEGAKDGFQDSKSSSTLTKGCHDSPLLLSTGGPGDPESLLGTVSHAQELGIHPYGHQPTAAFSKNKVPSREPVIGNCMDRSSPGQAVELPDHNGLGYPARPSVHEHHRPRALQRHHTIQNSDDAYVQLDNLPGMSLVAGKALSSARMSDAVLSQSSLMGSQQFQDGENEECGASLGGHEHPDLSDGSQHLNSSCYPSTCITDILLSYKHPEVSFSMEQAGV

Sequence of PRKCQ (Q04759 whole entry): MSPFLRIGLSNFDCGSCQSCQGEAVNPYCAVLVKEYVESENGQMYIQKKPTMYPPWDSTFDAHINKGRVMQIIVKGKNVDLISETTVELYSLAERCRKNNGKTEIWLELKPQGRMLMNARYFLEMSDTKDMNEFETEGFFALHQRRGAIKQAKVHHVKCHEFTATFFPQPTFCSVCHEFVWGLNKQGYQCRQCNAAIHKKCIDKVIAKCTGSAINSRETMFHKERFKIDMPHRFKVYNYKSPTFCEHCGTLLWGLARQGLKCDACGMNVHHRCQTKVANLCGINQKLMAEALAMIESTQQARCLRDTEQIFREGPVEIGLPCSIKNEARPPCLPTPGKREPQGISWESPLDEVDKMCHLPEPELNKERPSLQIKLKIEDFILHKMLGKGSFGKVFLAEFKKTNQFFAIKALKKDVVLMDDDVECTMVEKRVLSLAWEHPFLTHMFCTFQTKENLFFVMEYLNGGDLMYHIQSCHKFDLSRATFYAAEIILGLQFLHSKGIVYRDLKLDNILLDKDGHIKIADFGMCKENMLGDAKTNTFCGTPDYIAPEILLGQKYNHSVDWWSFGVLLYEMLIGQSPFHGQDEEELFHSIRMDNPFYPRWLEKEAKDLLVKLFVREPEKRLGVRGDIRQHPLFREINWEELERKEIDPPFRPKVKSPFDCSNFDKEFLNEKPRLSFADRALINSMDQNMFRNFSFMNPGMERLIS
Sequence of CSNK1A1 (P48729 whole entry): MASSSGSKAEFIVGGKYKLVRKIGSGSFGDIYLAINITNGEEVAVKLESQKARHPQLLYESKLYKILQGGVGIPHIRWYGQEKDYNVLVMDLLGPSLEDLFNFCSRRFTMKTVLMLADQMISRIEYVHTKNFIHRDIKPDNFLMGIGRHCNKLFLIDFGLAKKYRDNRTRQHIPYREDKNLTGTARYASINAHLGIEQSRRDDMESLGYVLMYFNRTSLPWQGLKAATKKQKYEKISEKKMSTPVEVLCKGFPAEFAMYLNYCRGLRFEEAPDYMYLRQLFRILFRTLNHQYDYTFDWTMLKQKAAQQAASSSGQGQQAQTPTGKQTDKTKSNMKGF
Sequence of TNIK (Q9UKE5 whole entry): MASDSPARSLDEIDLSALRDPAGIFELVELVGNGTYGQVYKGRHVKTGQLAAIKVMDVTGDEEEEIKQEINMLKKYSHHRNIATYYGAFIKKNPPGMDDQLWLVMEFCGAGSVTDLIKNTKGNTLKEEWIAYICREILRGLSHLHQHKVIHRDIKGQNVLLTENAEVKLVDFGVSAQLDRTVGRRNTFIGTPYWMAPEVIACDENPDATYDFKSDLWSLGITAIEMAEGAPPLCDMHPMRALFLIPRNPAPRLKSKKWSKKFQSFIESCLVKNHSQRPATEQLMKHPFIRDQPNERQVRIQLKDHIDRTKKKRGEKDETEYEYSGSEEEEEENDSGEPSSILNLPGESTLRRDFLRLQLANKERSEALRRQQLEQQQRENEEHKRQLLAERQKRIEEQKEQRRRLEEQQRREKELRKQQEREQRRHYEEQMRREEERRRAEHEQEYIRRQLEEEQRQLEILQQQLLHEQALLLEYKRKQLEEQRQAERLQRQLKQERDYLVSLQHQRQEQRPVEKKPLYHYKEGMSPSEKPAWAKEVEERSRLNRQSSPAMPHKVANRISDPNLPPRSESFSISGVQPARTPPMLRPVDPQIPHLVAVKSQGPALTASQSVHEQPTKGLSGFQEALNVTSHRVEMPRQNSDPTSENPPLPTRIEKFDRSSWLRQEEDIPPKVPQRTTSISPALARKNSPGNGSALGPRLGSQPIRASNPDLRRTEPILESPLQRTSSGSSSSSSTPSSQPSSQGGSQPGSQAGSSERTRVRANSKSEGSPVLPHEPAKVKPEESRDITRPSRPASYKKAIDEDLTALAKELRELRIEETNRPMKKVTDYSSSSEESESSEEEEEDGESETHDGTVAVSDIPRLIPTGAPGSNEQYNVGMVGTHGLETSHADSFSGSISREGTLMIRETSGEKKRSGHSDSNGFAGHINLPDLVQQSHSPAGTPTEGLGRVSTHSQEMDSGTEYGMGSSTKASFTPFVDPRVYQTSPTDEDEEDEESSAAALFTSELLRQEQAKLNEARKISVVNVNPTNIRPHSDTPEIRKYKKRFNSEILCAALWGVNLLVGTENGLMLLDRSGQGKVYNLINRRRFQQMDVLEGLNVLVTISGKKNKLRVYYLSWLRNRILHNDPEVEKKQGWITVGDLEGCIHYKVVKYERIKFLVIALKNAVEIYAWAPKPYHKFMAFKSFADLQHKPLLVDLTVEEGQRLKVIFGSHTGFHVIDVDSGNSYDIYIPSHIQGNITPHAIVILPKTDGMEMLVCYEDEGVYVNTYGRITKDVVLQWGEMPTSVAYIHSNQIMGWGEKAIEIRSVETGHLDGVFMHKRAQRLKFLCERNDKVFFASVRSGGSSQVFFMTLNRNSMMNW
Sequence of PTK2 (Q05397 whole entry): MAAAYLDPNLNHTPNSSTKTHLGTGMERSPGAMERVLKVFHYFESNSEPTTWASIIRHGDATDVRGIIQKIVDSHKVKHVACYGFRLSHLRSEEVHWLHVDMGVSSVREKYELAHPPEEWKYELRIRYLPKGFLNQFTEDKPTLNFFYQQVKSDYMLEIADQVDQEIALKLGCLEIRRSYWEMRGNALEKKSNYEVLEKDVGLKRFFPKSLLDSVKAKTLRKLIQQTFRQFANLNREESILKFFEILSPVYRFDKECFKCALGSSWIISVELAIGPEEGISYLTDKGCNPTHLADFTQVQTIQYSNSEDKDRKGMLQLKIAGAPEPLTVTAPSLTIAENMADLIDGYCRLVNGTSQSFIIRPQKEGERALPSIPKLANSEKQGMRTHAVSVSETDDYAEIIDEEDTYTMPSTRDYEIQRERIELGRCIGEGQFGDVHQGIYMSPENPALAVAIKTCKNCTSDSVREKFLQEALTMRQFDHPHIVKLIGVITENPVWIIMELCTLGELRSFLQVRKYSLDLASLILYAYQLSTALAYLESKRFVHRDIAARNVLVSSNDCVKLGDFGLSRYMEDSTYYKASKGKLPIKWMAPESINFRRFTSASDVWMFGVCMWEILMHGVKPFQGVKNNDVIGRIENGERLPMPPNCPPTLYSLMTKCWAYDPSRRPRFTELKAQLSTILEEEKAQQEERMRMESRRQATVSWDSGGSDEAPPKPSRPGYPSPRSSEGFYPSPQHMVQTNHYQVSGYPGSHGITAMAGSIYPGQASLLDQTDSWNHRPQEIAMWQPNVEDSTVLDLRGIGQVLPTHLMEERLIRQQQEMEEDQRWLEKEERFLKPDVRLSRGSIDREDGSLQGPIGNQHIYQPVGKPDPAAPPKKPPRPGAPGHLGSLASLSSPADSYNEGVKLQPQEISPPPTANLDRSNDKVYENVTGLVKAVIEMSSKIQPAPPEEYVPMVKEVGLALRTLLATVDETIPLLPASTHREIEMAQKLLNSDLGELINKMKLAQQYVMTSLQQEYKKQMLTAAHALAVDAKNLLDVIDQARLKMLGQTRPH

Consider `CN1CCN(c2ccc(Nc3ncc(C#N)c(Nc4ccccc4C(N)=O)n3)cc2)CC1.Cl` [TCMDC-134116], for which the pIC50 (in general, the negative decadic logarithm of the IC50, by convention in mol/L) in experiment [1] was 6.70 and 6.60; in experiment [2], 6.85; in experiment [3] it was 6.34 and 6.31; in [4] it was 6.02 and 5.85; in experiment [5], 7.28 and 7.10; in experiment [6] it was 7.36 and 7.24. Also, the pIC50 in experiment [7] was 6.47 and 6.48; in experiment [8], 5.92 and 6.04; in experiment [9], 6.46 and 6.60.

Regarding `Cl.NCC1(c2nc(-c3ccc(Cl)c(O)c3)c(-c3ccncc3)[nH]2)CCCCC1` [TCMDC-141154], the pIC50 in experiment [1] was 6.54; in [2], < 4.70; in experiment [3], < 4.70; in experiment [4] it was 6.54 and 6.48; in experiment [5] it was < 4.70; in experiment [6] it was < 4.70. Moreover, the pIC50 in [7] is 5.28 and 5.37; in experiment [8] it was 5.96 and 5.85; in experiment [9], 7.18 and 7.29.

For `CN(C)CC(O)COc1ccc(Nc2ncc([N+](=O)[O-])c(Nc3ccccc3O)n2)cc1.O=C(O)C(F)(F)F` (stereo not drawn) [TCMDC-141399], the pIC50 in experiment [1] is 6.09; in experiment [2], 5.77; in experiment [3] it was < 4.70; in experiment [4], 5.00; in experiment [5], 5.96 and 5.85; in [6], 7.05 and 7.01. For the same molecule, the pIC50 in experiment [7] was 5.72; in experiment [8], < 4.70; in [9] it was < 4.70.
